How the values were obtained:
[1] = system: transcriptional activity of hTERT; assay: SEAP reporter assay of hTERT expression, PhTERT-SEAP (H1299); assay type: cell-based, human
Outline: (§1)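 SEAP activity, read as rate of 405 nm absorbance rise with 12 mM p-nitrophenyl phosphate in diethanolamine/MgCl2/homoarginine buffer after 65 °C, 10 min heat inactivation, reports hTERT or CMV promoter activity. G418-selected stable H1299 or hTERT-BJ1 reporter lines were exposed to drug for 24 h.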

[2] = system: hepatitis B virus transfected hepatoma cell lines, HepG 2.2.15 cells; assay: Cytotoxicity assay, 2.2.15 cells; assay type: cell-based, human; details: Homo sapiens, HepG2.2.15; 48 h of drug exposure
rat glioma C6 cells = assay: Cytotoxicity assay (XTT colorimetric), C6 cells; assay type: cell-based; details: Rattus norvegicus, C6; 48 h of drug exposure
human hepatoma G2 cells = assay: Cytotoxicity assay (XTT colorimetric), Hep G2; assay type: cell-based; details: Homo sapiens, HepG2; 48 h of drug exposure
[3] = MTT relative viability, PhTERT-SEAP (H1299) cells; details: human
[4] = MTT relative viability, PhTERT-SEAP (hTERT-BJ1) cells; details: human
[5] = system: transcriptional activity of hTERT; assay: SEAP reporter assay of hTERT expression, PhTERT-SEAP (hTERT-BJ1); assay type: cell-based, human
Outline: as §1

[6] = system: iron-induced lipid peroxidation in rat brain homogenates; assay: Iron-induced lipid peroxidation in rat brain homogenates; details: 10 mM
[7] = hTERT-BJ1 cells, stable PhTERT-SEAP reporter clone
[8] = Homo sapiens, NCI-H1299, hTERT-H1299, read-out: Relative SEAP activity (%)
[9] = Homo sapiens, hTERT-BJ1, read-out: Relative SEAP activity (%)

O=C1c2ccccc2C(=O)c2c(NC(=O)[C@@H]3C[C@H]3c3ccccc3)ccc(NC(=O)[C@@H]3C[C@H]3c3ccccc3)c21 (relative stereo) [VI27, 1,4-Bis(trans-2-phenyl-1-cyclopropaneamido)-9,10-anthracenedione]
SEAP/vibility ([1]; 1.8 μM, PhTERT-SEAP(hTERT-H1299)): 0.94
SEAP/vibility ([1]; 18 μM, PhTERT-SEAP(hTERT-H1299)): 0.93
SEAP/vibility ([1]; 189 μM, PhTERT-SEAP(hTERT-H1299)): 0.92
activity at 1.8 µM ([1]; Homo sapiens, NCI-H1299, 1.8 μM, PhTERT-SEAP(hTERT-H1299), read-out: Relative SEAP activity (%)): 95 ± 7.7%
activity at 18 µM ([1]; Homo sapiens, NCI-H1299, 18 μM, PhTERT-SEAP(hTERT-H1299), read-out: Relative SEAP activity (%)): 93 ± 3.2%
activity at 189 µM ([1]; Homo sapiens, NCI-H1299, 189 μM, PhTERT-SEAP(hTERT-H1299), read-out: Relative SEAP activity (%)): 87 ± 3.6%
IC50 [2]: 19.5 µM
IC50 (rat glioma C6 cells): > 20 µM
melting point: 272 to 274 °C
IC50 (human hepatoma G2 cells): > 20 µM
viability at 48 h, 1.8 µM [3]: 101 ± 2.4%
viability at 48 h, 18 µM [3]: 100 ± 4.7%
viability at 48 h, 189 µM [3]: 94 ± 3.5%
viability at 48 h, 1.8 µM [4, 7]: 92 ± 16.9%
viability at 48 h, 18 µM [4, 7]: 97 ± 18.2%
viability at 48 h, 189 µM [4, 7]: 104 ± 10.7%
SEAP/vibility ([5]; 1.8 μM, PhTERT-SEAP (hTERT-BJ1)): 0.89
SEAP/vibility ([5]; 18 μM, PhTERT-SEAP (hTERT-BJ1)): 0.99
SEAP/vibility ([5]; 189 μM, PhTERT-SEAP (hTERT-BJ1)): 0.98
activity at 1.8 µM ([5]; Homo sapiens, 1.8 μM, PhTERT-SEAP (hTERT-BJ1), read-out: Relative SEAP activity (%)): 92 ± 16.9%
activity at 18 µM ([5]; Homo sapiens, 18 μM, PhTERT-SEAP (hTERT-BJ1), read-out: Relative SEAP activity (%)): 97 ± 18.2%
activity at 189 µM ([5]; Homo sapiens, 189 μM, PhTERT-SEAP (hTERT-BJ1), read-out: Relative SEAP activity (%)): 102 ± 16.6%

O=C1c2cccc(SCCC(O)O)c2C(=O)c2cccc(SCCC(O)O)c21 [IId, 1,5-Bis(dihydroxypropylthio)-anthraquinone]
melting point: 238 to 239 °C

CCNc1cccc2c1C(=O)c1cccc(NCC)c1C2=O [IVa, 1,5-Bis(ethylamino)anthraquinone]
activity at 3.3 µM ([1]; Homo sapiens, NCI-H1299, 3.3 μM, hTERT-H1299, read-out: Relative SEAP activity (%)): 108 ± 6.3%
activity at 33 µM ([1]; Homo sapiens, NCI-H1299, 33 μM, hTERT-H1299, read-out: Relative SEAP activity (%)): 101 ± 6.8%
activity at 339 µM ([1]; Homo sapiens, NCI-H1299, 339 μM, hTERT-H1299, read-out: Relative SEAP activity (%)): 95 ± 11%
IC50 [2]: > 20 µM
IC50 (rat glioma C6 cells): > 20 µM
melting point: 193 to 195 °C
IC50 (human hepatoma G2 cells): > 20 µM
viability at 48 h, 3.3 µM [3]: 106 ± 7.4%
viability at 48 h, 33 µM [3]: 104 ± 3.7%
viability at 48 h, 339 µM [3]: 103 ± 6.4%
viability at 48 h, 3.3 µM [4]: 100 ± 4.8%
viability at 48 h, 33 µM [4]: 97 ± 1%
viability at 48 h, 339 µM ([4]; hTERT-BJ1 cells): 99 ± 3.2%
activity at 3.3 µM ([5]; Homo sapiens, 3.3 μM, hTERT-BJ1, read-out: Relative SEAP activity (%)): 94 ± 17.4%
activity at 33 µM ([5]; Homo sapiens, 33 μM, hTERT-BJ1, read-out: Relative SEAP activity (%)): 96 ± 8.5%
activity at 339 µM ([5]; Homo sapiens, 339 μM, hTERT-BJ1, read-out: Relative SEAP activity (%)): 66 ± 11.8%

CC(C)Nc1cccc2c1C(=O)c1cccc(NC(C)C)c1C2=O [IVc, 1,5-Bis(isopropylamino)anthraquinone]
activity at 3.1 µM [1, 8]: 94 ± 4.1%
activity at 31 µM [1, 8]: 93 ± 2%
activity at 310 µM [1, 8]: 66 ± 4.7%
IC50 [2]: 19 µM
IC50 (rat glioma C6 cells): > 20 µM
melting point: 170 to 172 °C
IC50 (human hepatoma G2 cells): 7.64 ± 2.38 µM
viability at 48 h, 3.1 µM [3]: 114 ± 7.6%
viability at 48 h, 31 µM [3]: 111 ± 4.7%
viability at 48 h, 310 µM [3]: 50 ± 7.5%
viability at 48 h, 3.1 µM ([4]; hTERT-BJ1 cells): 101 ± 4.5%
viability at 48 h, 31 µM ([4]; hTERT-BJ1 cells): 93 ± 6.5%
viability at 48 h, 310 µM ([4]; hTERT-BJ1 cells): 98 ± 12.9%
activity at 3.1 µM [5, 9]: 32 ± 18.3%
activity at 31 µM [5, 9]: 23 ± 20.5%
activity at 310 µM [5, 9]: -2%

CCCNc1cccc2c1C(=O)c1cccc(NCCC)c1C2=O [IVf, 1,5-Bis(propylamino)anthraquinone]
activity at 3.1 µM [1, 8]: 101 ± 15.3%
activity at 31 µM [1, 8]: 100 ± 5.6%
activity at 310 µM [1, 8]: 89 ± 8.3%
IC50 [2]: 1.94 µM
IC50 (rat glioma C6 cells): 16 ± 0.68 µM
melting point: 153 to 154 °C
IC50 (human hepatoma G2 cells): 1.74 ± 0.14 µM
viability at 48 h, 3.1 µM [3]: 99 ± 7.6%
viability at 48 h, 31 µM [3]: 98 ± 5.8%
viability at 48 h, 310 µM [3]: 46 ± 9.5%
viability at 48 h, 3.1 µM ([4]; hTERT-BJ1 cells): 97 ± 5.6%
viability at 48 h, 31 µM ([4]; hTERT-BJ1 cells): 93 ± 8.9%
viability at 48 h, 310 µM ([4]; hTERT-BJ1 cells): 42 ± 8.1%
activity at 3.1 µM [5, 9]: 18 ± 16.7%
activity at 31 µM [5, 9]: 19 ± 24.6%
activity at 310 µM [5, 9]: -7%

CCCCNc1cccc2c1C(=O)c1cccc(NCCCC)c1C2=O [IVg, 1,5-Bis(butylamino)anthraquinone]
melting point: 152 to 153 °C

O=C1c2cccc(NC3CCCC3)c2C(=O)c2cccc(NC3CCCC3)c21 [IVi, 1,5-Bis(cyclopentylamino)anthraquinone]
melting point: 198 to 201 °C

NCCCCNc1cccc2c1C(=O)c1cccc(NCCCCN)c1C2=O [IVl, 1,5-Bis(aminobutylamino)-anthraquinone]
melting point: 208 to 210 °C

NCCCCCNc1cccc2c1C(=O)c1cccc(NCCCCCN)c1C2=O [IVm, 1,5-Bis(aminopentylamino)-anthraquinone]
IC50 [2]: > 20 µM
IC50 (rat glioma C6 cells): 8.36 µM
melting point: 113 to 115 °C
IC50 (human hepatoma G2 cells): 17.4 ± 0.74 µM

CCCCCCNc1cccc2c1C(=O)c1cccc(NCCCCCC)c1C2=O [IVn, 1,5-Bis(hexylamino)-anthraquinone]
melting point: 142 to 144 °C

CC1CCCC(Nc2cccc3c2C(=O)c2cccc(NC4CCCC(C)C4C)c2C3=O)C1C (stereo not drawn) [IVp, 1,5-Bis(2,3-dimethylcyclohexylamino)-anthraquinone]
melting point: 188 to 190 °C

O=C1c2cccc(NCc3ccccc3)c2C(=O)c2cccc(NCc3ccccc3)c21 [IVr, 1,5-Bis(benzylamino)-anthraquinone]
IC50 [2]: > 20 µM
IC50 (rat glioma C6 cells): > 20 µM
melting point: 218 to 220 °C
IC50 (human hepatoma G2 cells): > 20 µM

O=C1c2cccc(NCCc3ccccc3)c2C(=O)c2cccc(NCCc3ccccc3)c21 [IVs, 1,5-Bis(phenylethylamino)-anthraquinone]
activity at 2.2 µM ([1]; Homo sapiens, NCI-H1299, 2.2 μM, hTERT-H1299, read-out: Relative SEAP activity (%)): 105 ± 3%
activity at 22 µM ([1]; Homo sapiens, NCI-H1299, 22 μM, hTERT-H1299, read-out: Relative SEAP activity (%)): 103 ± 9.5%
activity at 223 µM ([1]; Homo sapiens, NCI-H1299, 223 μM, hTERT-H1299, read-out: Relative SEAP activity (%)): 96 ± 2.9%
IC50 [2]: > 20 µM
IC50 (rat glioma C6 cells): > 20 µM
melting point: 205 to 207 °C
IC50 (human hepatoma G2 cells): > 20 µM
viability at 48 h, 2.2 µM [3]: 94 ± 5.2%
viability at 48 h, 22 µM [3]: 97 ± 3.2%
viability at 48 h, 223 µM [3]: 77 ± 4.2%
viability at 48 h, 2.2 µM [4]: 97 ± 4%
viability at 48 h, 22 µM [4]: 92 ± 1%
viability at 48 h, 223 µM [4]: 81 ± 4.7%
activity at 2.2 µM ([5]; Homo sapiens, 2.2 μM, hTERT-BJ1, read-out: Relative SEAP activity (%)): 115 ± 12.9%
activity at 22 µM ([5]; Homo sapiens, 22 μM, hTERT-BJ1, read-out: Relative SEAP activity (%)): 103 ± 12.3%
activity at 223 µM ([5]; Homo sapiens, 223 μM, hTERT-BJ1, read-out: Relative SEAP activity (%)): 133 ± 23.8%

O=C1c2c(O)ccc(O)c2C(=O)c2c(NCCNCCO)ccc(NCCNCCO)c21 [Mitoxantrone, reference compound]
SEAP/vibility ([1]; 1.9 μM, PhTERT-SEAP(hTERT-H1299)): 0.82
SEAP/vibility ([1]; 19 μM, PhTERT-SEAP(hTERT-H1299)): 1.16
SEAP/vibility ([1]; 193 μM, PhTERT-SEAP(hTERT-H1299)): 1.21
activity at 1.9 µM ([1]; Homo sapiens, NCI-H1299, 1.9 μM, PhTERT-SEAP(hTERT-H1299), read-out: Relative SEAP activity (%)): 81 ± 3.8%
activity at 19 µM ([1]; Homo sapiens, NCI-H1299, 19 μM, PhTERT-SEAP(hTERT-H1299), read-out: Relative SEAP activity (%)): 66 ± 4%
activity at 193 µM ([1]; Homo sapiens, NCI-H1299, 193 μM, PhTERT-SEAP(hTERT-H1299), read-out: Relative SEAP activity (%)): 47 ± 3.9%
IC50 [2]: 0.4 µM
IC50 (rat glioma C6 cells): 0.07 ± 0.01 µM
IC50 (human hepatoma G2 cells): 2 ± 0.5 µM
viability at 48 h, 1.9 µM [3]: 100 ± 5.6%
viability at 48 h, 19 µM [3]: 57 ± 4.3%
viability at 48 h, 193 µM [3]: 39 ± 3.2%
Inhibition of LP(10 mM) ([6]; mean percent inhibition (Table 3)): >100%
LP (%) (10 mM) ([6]; relative percentage of inhibition (Table 1)): 54 ± 1.5%
viability at 48 h, 1.9 µM [4]: 75 ± 2.9%
viability at 48 h, 19 µM [4]: 56 ± 3.1%
viability at 48 h, 193 µM [4]: 10 ± 2%
activity at 1.9 µM ([5]; Homo sapiens, 1.9 μM, hTERT-BJ1, read-out: Relative SEAP activity (%)): 30 ± 5.8%
activity at 19 µM ([5]; Homo sapiens, 19 μM, hTERT-BJ1, read-out: Relative SEAP activity (%)): 13 ± 9.2%
activity at 193 µM ([5]; Homo sapiens, 193 μM, hTERT-BJ1, read-out: Relative SEAP activity (%)): 4 ± 14.2%

CCC(=O)Nc1cccc2c1C(=O)c1cccc(NC(=O)CC)c1C2=O [VIIb, 1,5-bis-(methylacetamido)-9,10-anthracenedione]
melting point: 321 °C

CC(Cl)C(=O)Nc1cccc2c1C(=O)c1cccc(NC(=O)C(C)Cl)c1C2=O (stereo not drawn) [VIId, 1,5-bis-(2-chloropropionamido)-9,10-anthracenedione]
melting point: 288 to 289 °C

NCCCCCNc1cccc2c1C(=O)c1c(NCCCCCN)cccc1C2=O [Vm, 1,8-Bis(aminopentylamino)-anthraquinone]
IC50 [2]: 1.29 µM
IC50 (rat glioma C6 cells): 0.11 ± 0.01 µM
melting point: 115 to 116 °C
IC50 (human hepatoma G2 cells): 0.09 µM

— patent publication US20050009924A1 (priority 2003, published 2005)
